# Legend:
# [1] = Inhibition of Hepatitis C virus full-length NS3/4A protease assessed as quenched-fluorogenic RET-S1 substrate cleavage incubated for 10 mins prior to substrate addition by FRET analysis; parameters: species or system Hepacivirus hominis
# [2] = system: Hepatitis C virus; assay: Antiviral activity against Hepatitis C virus infected in human HuH7 cells assessed as inhibition of HCV subgenomic replicon replication after 72 hrs by ELISA; type: functional, organism-based, Hepacivirus hominis, Huh-7; conditions: Hepatitis C virus, Huh-7, 72 h; read-out: EC50
Compound,IC50 [1] [nM],EC50 [2] [nM]
O=C(N[C@H]1CCCCC/C=C\[C@@H]2C[C@@]2(C(=O)NS(=O)(=O)C2CC2)NC(=O)[C@@H]2C[C@@H](OC(=O)N3Cc4ccccc4C3)CN2C1=O)O[C@@H]1CCOC1,2.8,107
O=C(N[C@H]1CCCCC/C=C\[C@@H]2C[C@@]2(C(=O)NS(=O)(=O)C2CC2)NC(=O)[C@@H]2C[C@@H](OC(=O)N3Cc4ccccc4C3)CN2C1=O)O[C@H]1CCOC1,2.2,217
O=C(N[C@H]1CCCCC/C=C\[C@@H]2C[C@@]2(C(=O)NS(=O)(=O)C2CC2)NC(=O)[C@@H]2C[C@@H](OC(=O)N3Cc4ccccc4C3)CN2C1=O)OC1CCOCC1,2.2,97
CC(C)(C)OC(=O)N[C@H]1CCCC/C=C\[C@@H]2C[C@@]2(C(=O)NS(=O)(=O)C2CC2)NC(=O)[C@@H]2C[C@@H](OC(=O)N3Cc4cccc(F)c4C3)CN2C1=O,1.5,76.6
CC(C)(C)OC(=O)N[C@H]1CCCCC/C=C\[C@@H]2C[C@@]2(C(=O)NS(=O)(=O)N2CCNCC2)NC(=O)[C@@H]2C[C@@H](OC(=O)N3Cc4ccccc4C3)CN2C1=O,22,509
CN1CCN(S(=O)(=O)NC(=O)[C@@]23C[C@H]2/C=C\CCCCC[C@H](NC(=O)OC(C)(C)C)C(=O)N2C[C@H](OC(=O)N4Cc5ccccc5C4)C[C@H]2C(=O)N3)CC1,17,46
CC(C)N(C(C)C)S(=O)(=O)NC(=O)[C@@]12C[C@H]1/C=C\CCCCC[C@H](NC(=O)OC(C)(C)C)C(=O)N1C[C@H](OC(=O)N3Cc4ccccc4C3)C[C@H]1C(=O)N2,70,139
CC(C)(C)OC(=O)N[C@H]1CCCCC/C=C\[C@@H]2C[C@@]2(C(=O)NS(=O)(=O)Nc2ccccc2)NC(=O)[C@@H]2C[C@@H](OC(=O)N3Cc4ccccc4C3)CN2C1=O,2.2,30
CC(C)(C)OC(=O)N[C@H]1CCCCC/C=C\[C@@H]2C[C@@]2(C(=O)NS(=O)(=O)Nc2ccc(Cl)cc2)NC(=O)[C@@H]2C[C@@H](OC(=O)N3Cc4ccccc4C3)CN2C1=O,7.9,97
COc1ccc(NS(=O)(=O)NC(=O)[C@@]23C[C@H]2/C=C\CCCCC[C@H](NC(=O)OC(C)(C)C)C(=O)N2C[C@H](OC(=O)N4Cc5ccccc5C4)C[C@H]2C(=O)N3)cc1,11,184
CC(C)(C)OC(=O)N[C@H]1CCCCC/C=C\[C@@H]2C[C@@]2(C(=O)NS(=O)(=O)Nc2ccc(C(F)(F)F)cc2)NC(=O)[C@@H]2C[C@@H](OC(=O)N3Cc4ccccc4C3)CN2C1=O,9.8,70
O=C(N[C@H]1CCCCC/C=C\[C@@H]2C[C@@]2(C(=O)NS(=O)(=O)C2CC2)NC(=O)[C@@H]2C[C@@H](OC(=O)N3Cc4ccccc4C3)CN2C1=O)OC1CCCC1,1,4
O=C(N[C@H]1CCCCC/C=C\[C@@H]2C[C@@]2(C(=O)NS(=O)(=O)C2CC2)NC(=O)[C@@H]2C[C@@H](OC(=O)N3Cc4ccccc4C3)CN2C1=O)OCCF,1.5,54
O=C(CCC(F)(F)F)N[C@H]1CCCCC/C=C\[C@@H]2C[C@@]2(C(=O)NS(=O)(=O)C2CC2)NC(=O)[C@@H]2C[C@@H](OC(=O)N3Cc4ccccc4C3)CN2C1=O,0.6,48
CC(C)(C)NC(=O)N[C@H]1CCCCC/C=C\[C@@H]2C[C@@]2(C(=O)NS(=O)(=O)C2CC2)NC(=O)[C@@H]2C[C@@H](OC(=O)N3Cc4ccccc4C3)CN2C1=O,2.4,38
O=C(NC1CCCC1)N[C@H]1CCCCC/C=C\[C@@H]2C[C@@]2(C(=O)NS(=O)(=O)C2CC2)NC(=O)[C@@H]2C[C@@H](OC(=O)N3Cc4ccccc4C3)CN2C1=O,0.7,26
CC(C)(C)OC(=O)N[C@H]1CCCCC/C=C\[C@@H]2C[C@@]2(C(=O)NS(=O)(=O)c2cc(F)ccc2F)NC(=O)[C@@H]2C[C@@H](OC(=O)N3Cc4ccccc4C3)CN2C1=O,0.7,285
CC(C)(C)OC(=O)N[C@H]1CCCCC/C=C\[C@@H]2C[C@@]2(C(=O)NS(=O)(=O)c2cccs2)NC(=O)[C@@H]2C[C@@H](OC(=O)N3Cc4ccccc4C3)CN2C1=O,2.5,27
CC(C)(C)OC(=O)N[C@H]1CCCCC/C=C\[C@@H]2C[C@@]2(C(=O)NS(=O)(=O)c2ccc(Cl)s2)NC(=O)[C@@H]2C[C@@H](OC(=O)N3Cc4ccccc4C3)CN2C1=O,4.6,111
CC(C)(C)OC(=O)N[C@H]1CCCCC/C=C\[C@@H]2C[C@@]2(C(=O)NS(=O)(=O)c2cc(Cl)sc2Cl)NC(=O)[C@@H]2C[C@@H](OC(=O)N3Cc4ccccc4C3)CN2C1=O,0.5,32
CC(C)(C)OC(=O)N[C@H]1CCCCC/C=C\[C@@H]2C[C@@]2(C(=O)NS(=O)(=O)C2(C)CC2)NC(=O)[C@@H]2C[C@@H](OC(=O)N3Cc4ccccc4C3)CN2C1=O,0.5,3.1

Compound,IC50 [1] [nM],EC50 [2] [nM]
COCC1(S(=O)(=O)NC(=O)[C@@]23C[C@H]2/C=C\CCCCC[C@H](NC(=O)OC(C)(C)C)C(=O)N2C[C@H](OC(=O)N4Cc5ccccc5C4)C[C@H]2C(=O)N3)CC1,7.7,13
CCCC1(S(=O)(=O)NC(=O)[C@@]23C[C@H]2/C=C\CCCCC[C@H](NC(=O)OC(C)(C)C)C(=O)N2C[C@H](OC(=O)N4Cc5ccccc5C4)C[C@H]2C(=O)N3)CC1,3,5
CC(C)(C)OC(=O)N[C@H]1CCCCC/C=C\[C@@H]2C[C@@]2(C(=O)NS(=O)(=O)C2(Cc3ccccc3)CC2)NC(=O)[C@@H]2C[C@@H](OC(=O)N3Cc4ccccc4C3)CN2C1=O,1.6,25
CC(C)(C)OC(=O)N[C@H]1CCCCC/C=C\[C@@H]2C[C@@]2(C(=O)NS(=O)(=O)NC2CC2)NC(=O)[C@@H]2C[C@@H](OC(=O)N3Cc4ccccc4C3)CN2C1=O,4.2,32
CC(C)(C)OC(=O)N[C@H]1CCCCC/C=C\[C@@H]2C[C@@]2(C(=O)NS(=O)(=O)N2CCC2)NC(=O)[C@@H]2C[C@@H](OC(=O)N3Cc4ccccc4C3)CN2C1=O,2.4,6.5
CC(C)(C)OC(=O)N[C@H]1CCCCC/C=C\[C@@H]2C[C@@]2(C(=O)NS(=O)(=O)N2CCCC2)NC(=O)[C@@H]2C[C@@H](OC(=O)N3Cc4ccccc4C3)CN2C1=O,2.6,11.8
CC(C)(C)OC(=O)N[C@H]1CCCCC/C=C\[C@@H]2C[C@@]2(C(=O)NS(=O)(=O)N2CCOCC2)NC(=O)[C@@H]2C[C@@H](OC(=O)N3Cc4ccccc4C3)CN2C1=O,4.4,52
CN1CCN(c2ccc3c(c2)CN(C(=O)O[C@@H]2C[C@H]4C(=O)N[C@]5(C(=O)NS(=O)(=O)C6CC6)C[C@H]5/C=C\CCCCC[C@H](NC(=O)OC(C)(C)C)C(=O)N4C2)C3)CC1,2,41
CC(C)Nc1ccc2c(c1)CN(C(=O)O[C@@H]1C[C@H]3C(=O)N[C@]4(C(=O)NS(=O)(=O)C5CC5)C[C@H]4/C=C\CCCCC[C@H](NC(=O)OC(C)(C)C)C(=O)N3C1)C2,4.3,11
CC(C)(C)OC(=O)N[C@H]1CCCCC/C=C\[C@@H]2C[C@@]2(C(=O)NS(=O)(=O)C2CC2)NC(=O)[C@@H]2C[C@@H](OC(=O)N3Cc4cccc(N5CCOCC5)c4C3)CN2C1=O,1.8,77
CC(C)(C)OC(=O)N[C@H]1CCCCC/C=C\[C@@H]2C[C@@]2(C(=O)NS(C)(=O)=O)NC(=O)[C@@H]2C[C@@H](OC(=O)N3Cc4ccccc4C3)CN2C1=O,6.6,156
CC(C)S(=O)(=O)NC(=O)[C@@]12C[C@H]1/C=C\CCCCC[C@H](NC(=O)OC(C)(C)C)C(=O)N1C[C@H](OC(=O)N3Cc4ccccc4C3)C[C@H]1C(=O)N2,4.8,21
CC(C)(C)OC(=O)N[C@H]1CCCCC/C=C\[C@@H]2C[C@@]2(C(=O)NS(=O)(=O)C(C)(C)C)NC(=O)[C@@H]2C[C@@H](OC(=O)N3Cc4ccccc4C3)CN2C1=O,37,194
CC(C)(C)OC(=O)N[C@H]1CCCCC/C=C\[C@@H]2C[C@@]2(C(=O)NS(=O)(=O)C(F)(F)F)NC(=O)[C@@H]2C[C@@H](OC(=O)N3Cc4ccccc4C3)CN2C1=O,4.8,166
CC(C)(C)OC(=O)N[C@H]1CCCCC/C=C\[C@@H]2C[C@@]2(C(=O)NS(=O)(=O)c2ccccc2)NC(=O)[C@@H]2C[C@@H](OC(=O)N3Cc4ccccc4C3)CN2C1=O,3.5,11
CC(C)(C)OC(=O)N[C@H]1CCCCC/C=C\[C@@H]2C[C@@]2(C(=O)NS(=O)(=O)c2ccc(Cl)cc2)NC(=O)[C@@H]2C[C@@H](OC(=O)N3Cc4ccccc4C3)CN2C1=O,3,58
COc1ccc(S(=O)(=O)NC(=O)[C@@]23C[C@H]2/C=C\CCCCC[C@H](NC(=O)OC(C)(C)C)C(=O)N2C[C@H](OC(=O)N4Cc5ccccc5C4)C[C@H]2C(=O)N3)cc1,4.1,10
CC(C)(C)OC(=O)N[C@H]1CCCCC/C=C\[C@@H]2C[C@@]2(C(=O)NS(=O)(=O)c2ccc(C#N)cc2)NC(=O)[C@@H]2C[C@@H](OC(=O)N3Cc4ccccc4C3)CN2C1=O,3,125
CN(C)c1ccc(S(=O)(=O)NC(=O)[C@@]23C[C@H]2/C=C\CCCCC[C@H](NC(=O)OC(C)(C)C)C(=O)N2C[C@H](OC(=O)N4Cc5ccccc5C4)C[C@H]2C(=O)N3)cc1,11,45
CC(C)(C)OC(=O)N[C@H]1CCCCC/C=C\[C@@H]2C[C@@]2(C(=O)NS(=O)(=O)C2CC2)NC(=O)[C@@H]2C[C@@H](OC(=O)N3Cc4cc(Cl)c(Cl)cc4C3)CN2C1=O,1,24
CC(C)(C)OC(=O)N[C@H]1CCCCC/C=C\[C@@H]2C[C@@]2(C(=O)NS(=O)(=O)C2CC2)NC(=O)[C@@H]2C[C@@H](OC(=O)N3Cc4ccc(N5CCOCC5)cc4C3)CN2C1=O,0.8,45

# From ChEMBL document CHEMBL3120136 (J Med Chem, 2014)
